Calls of active or inactive are those of the source.
Assays:
[1] = target: T1, Nuclear receptor subfamily 0 group B member 1 (Homo sapiens, UniProt P51843); assay type: functional, cell-based;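 note: HEK293T cells transfected with SF-1 and DAX-1 plus StAR promoter luciferase reporter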
T1 sequence (P51843 whole entry): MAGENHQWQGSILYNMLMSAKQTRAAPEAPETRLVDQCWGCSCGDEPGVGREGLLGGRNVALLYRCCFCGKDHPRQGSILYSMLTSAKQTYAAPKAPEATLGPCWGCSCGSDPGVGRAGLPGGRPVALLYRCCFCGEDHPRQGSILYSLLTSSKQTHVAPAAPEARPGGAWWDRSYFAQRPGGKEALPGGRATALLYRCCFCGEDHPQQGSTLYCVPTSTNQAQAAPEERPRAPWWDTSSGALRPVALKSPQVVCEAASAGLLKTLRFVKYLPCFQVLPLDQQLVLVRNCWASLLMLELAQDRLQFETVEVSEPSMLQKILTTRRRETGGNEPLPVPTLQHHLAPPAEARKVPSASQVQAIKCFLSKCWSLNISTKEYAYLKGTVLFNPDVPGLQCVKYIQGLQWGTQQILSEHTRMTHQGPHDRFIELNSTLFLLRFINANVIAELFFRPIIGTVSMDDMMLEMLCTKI

cells [2] = assay type: functional, cell-based
[3] = target: T2, Trace amine-associated receptor 1 (Homo sapiens, UniProt Q96RJ0); test: Counterscreen for agonists of the human trace amine associated receptor 1 (hTAAR1): Fluorescence-based cell-based high throughput dose response assay to identify hTAAR1 agonist that also desensitize TAAR1 receptor response.; assay type: functional
T2 sequence (Q96RJ0 whole entry): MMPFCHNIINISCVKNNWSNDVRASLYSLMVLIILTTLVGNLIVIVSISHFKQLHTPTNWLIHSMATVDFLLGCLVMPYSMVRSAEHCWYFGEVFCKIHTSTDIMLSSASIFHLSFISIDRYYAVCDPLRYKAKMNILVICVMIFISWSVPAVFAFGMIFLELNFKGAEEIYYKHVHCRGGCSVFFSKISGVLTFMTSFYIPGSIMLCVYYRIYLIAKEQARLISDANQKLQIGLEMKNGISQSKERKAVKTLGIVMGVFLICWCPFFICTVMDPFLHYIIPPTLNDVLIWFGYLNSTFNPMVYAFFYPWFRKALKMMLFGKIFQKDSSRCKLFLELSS

cells [4] = assay type: functional, cell-based; remark: listed apart in the source
cells [5] = assay type: functional, cell-based; remark: listed apart in the source
[6] = target: T2, Trace amine-associated receptor 1; test: Fluorescence-based cell-based high throughput dose response assay to identify agonists of the human trace amine associated receptor 1 (TAAR1).; assay type: functional
[7] = target: T3, Small ubiquitin-related modifier 1 (Homo sapiens, UniProt P63165); test: inhibitors of SUMO1 partner interactions, dose response, biochemical, FRET (AID 624383); assay type: functional; settings: read-out: IC50_Mean
[8] = target: T3, Small ubiquitin-related modifier 1; test: inhibitors of SUMO1 peptide binding, dose response, biochemical, fluorescence polarization, uHTS hits (AID 624382); assay type: functional; settings: read-out: IC50_Mean
Steroidogenic factor 1 = Steroidogenic factor 1 (Homo sapiens, UniProt Q13285); test: Counterscreen for inverse agonists of the liver receptor homolog-1 (LRH-1; NR5A2): Luminescence-based cell-based high throughput dose response assay to identify inverse agonists of the Steroidogenic Factor 1 Nuclear Receptor (SF1; NR5A1).; assay type: functional
[9] = target: Nuclear receptor subfamily 5 group A member 2 (Homo sapiens, UniProt O00482); assay type: functional, cell-based;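 note: HEK293T cells transfected with LRH-1 and a StAR promoter luciferase reporter; potency for inhibitors that lower LRH-1 driven reporter light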
[10] = StAR promoter reporter inhibition counter-screen, dose response, counter-screen for LRH-1 inverse agonist project, cell-based, luminescence, luciferase reporter (AID 651969); assay type: functional
[11] = target: T4, Adenosylmethionine-8-amino-7-oxononanoate aminotransferase (Mycobacterium tuberculosis, UniProt P9WQ81); test: Mycobacterium tuberculosis BioA enzyme inhibitor Measured in Biochemical System Using Plate Reader - 2163-02_Inhibitor_Dose_CherryPick_Activity.; assay type: functional, Mycobacterium tuberculosis UT205
T4 sequence (P9WQ81 whole entry): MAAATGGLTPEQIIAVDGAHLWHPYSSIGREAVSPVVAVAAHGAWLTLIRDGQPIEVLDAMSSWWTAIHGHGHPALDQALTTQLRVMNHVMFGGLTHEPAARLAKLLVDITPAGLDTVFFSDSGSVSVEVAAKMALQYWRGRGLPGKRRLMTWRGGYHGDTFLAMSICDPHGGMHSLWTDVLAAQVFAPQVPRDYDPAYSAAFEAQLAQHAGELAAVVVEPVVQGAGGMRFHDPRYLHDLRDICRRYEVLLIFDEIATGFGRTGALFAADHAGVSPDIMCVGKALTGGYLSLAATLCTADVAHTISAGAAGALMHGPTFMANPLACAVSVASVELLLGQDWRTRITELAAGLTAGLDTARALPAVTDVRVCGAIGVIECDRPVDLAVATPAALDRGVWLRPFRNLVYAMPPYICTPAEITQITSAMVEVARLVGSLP

[12] = target: T5, Rac GTPase-activating protein 1 (Homo sapiens, UniProt Q9H0H5); test: MgcRacGAP GTPase-activating activity inhibitors, confirmation, biochemical, ADP Hunter fluorescence, primary and confirmatory (AID 624330); assay type: functional
T5 sequence (Q9H0H5 whole entry): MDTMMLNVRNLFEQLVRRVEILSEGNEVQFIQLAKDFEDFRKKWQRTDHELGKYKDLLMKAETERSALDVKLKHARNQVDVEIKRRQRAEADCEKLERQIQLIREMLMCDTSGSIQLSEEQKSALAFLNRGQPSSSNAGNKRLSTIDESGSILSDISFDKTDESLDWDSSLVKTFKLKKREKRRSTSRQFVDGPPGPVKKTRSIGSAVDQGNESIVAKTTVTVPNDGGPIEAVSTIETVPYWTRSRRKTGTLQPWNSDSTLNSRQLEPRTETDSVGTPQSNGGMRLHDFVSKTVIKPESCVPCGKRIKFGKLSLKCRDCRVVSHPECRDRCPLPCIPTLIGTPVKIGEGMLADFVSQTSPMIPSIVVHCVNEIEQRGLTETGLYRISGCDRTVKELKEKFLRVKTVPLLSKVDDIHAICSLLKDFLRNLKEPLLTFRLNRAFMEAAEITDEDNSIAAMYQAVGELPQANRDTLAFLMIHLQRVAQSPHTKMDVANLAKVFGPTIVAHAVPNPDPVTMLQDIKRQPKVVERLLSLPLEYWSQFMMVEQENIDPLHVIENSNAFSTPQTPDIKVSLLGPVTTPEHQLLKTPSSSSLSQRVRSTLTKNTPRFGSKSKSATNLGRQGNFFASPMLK

Nonstructural protein 1 = Nonstructural protein 1 (Influenza A virus, UniProt Q194T2); assay type: functional, Influenza A virus (A/California/07/2009(H1N1))
[13] = target: T6, DNA repair protein RAD52 homolog (Homo sapiens, UniProt P43351); assay type: functional, biochemical
T6 sequence (P43351 whole entry): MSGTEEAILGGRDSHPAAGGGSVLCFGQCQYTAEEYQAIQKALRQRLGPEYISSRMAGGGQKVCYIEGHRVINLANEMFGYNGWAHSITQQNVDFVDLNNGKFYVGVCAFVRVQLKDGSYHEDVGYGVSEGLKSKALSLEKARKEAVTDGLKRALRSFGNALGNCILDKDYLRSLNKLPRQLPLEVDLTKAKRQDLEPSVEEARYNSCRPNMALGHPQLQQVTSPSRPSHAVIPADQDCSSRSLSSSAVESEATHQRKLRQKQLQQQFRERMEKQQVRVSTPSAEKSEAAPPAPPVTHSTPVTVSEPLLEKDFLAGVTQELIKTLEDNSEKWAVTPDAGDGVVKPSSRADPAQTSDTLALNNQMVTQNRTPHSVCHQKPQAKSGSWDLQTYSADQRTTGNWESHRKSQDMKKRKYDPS

[14] = HeLa cell cytotoxicity, dose response, cytotoxicity control for MgcRacGAP inhibitor project (AID 624300); assay type: functional

Chain of Nuclear receptor subfamily 5 group A member 2 (O00482 whole entry): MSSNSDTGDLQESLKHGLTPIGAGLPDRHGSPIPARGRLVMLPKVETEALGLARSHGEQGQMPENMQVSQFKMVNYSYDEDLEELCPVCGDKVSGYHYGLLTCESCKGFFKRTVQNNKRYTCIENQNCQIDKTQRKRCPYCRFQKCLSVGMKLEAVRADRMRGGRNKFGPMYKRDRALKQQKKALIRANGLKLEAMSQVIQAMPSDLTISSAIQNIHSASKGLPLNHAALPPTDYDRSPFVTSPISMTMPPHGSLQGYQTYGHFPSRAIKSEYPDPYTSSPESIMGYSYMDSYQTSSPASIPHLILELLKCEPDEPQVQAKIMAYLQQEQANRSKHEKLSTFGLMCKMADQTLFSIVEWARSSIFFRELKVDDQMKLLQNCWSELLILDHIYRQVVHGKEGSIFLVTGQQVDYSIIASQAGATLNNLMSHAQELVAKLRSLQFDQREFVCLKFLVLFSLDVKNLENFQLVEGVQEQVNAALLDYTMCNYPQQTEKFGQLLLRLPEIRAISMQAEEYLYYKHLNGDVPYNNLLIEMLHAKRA
Chain of Steroidogenic factor 1 (Q13285 whole entry): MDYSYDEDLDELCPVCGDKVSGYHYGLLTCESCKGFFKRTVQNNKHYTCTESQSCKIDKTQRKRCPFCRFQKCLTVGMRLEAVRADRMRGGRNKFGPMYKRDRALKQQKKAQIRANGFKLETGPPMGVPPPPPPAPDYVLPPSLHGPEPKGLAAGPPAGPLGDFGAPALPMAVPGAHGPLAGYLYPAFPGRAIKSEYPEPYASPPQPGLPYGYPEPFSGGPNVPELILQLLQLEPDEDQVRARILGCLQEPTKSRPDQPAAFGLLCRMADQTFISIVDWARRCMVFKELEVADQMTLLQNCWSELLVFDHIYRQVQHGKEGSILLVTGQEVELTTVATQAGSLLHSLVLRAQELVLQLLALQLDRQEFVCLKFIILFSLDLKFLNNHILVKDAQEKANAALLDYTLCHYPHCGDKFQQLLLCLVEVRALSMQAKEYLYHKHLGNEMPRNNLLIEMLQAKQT
T3 sequence (P63165 whole entry): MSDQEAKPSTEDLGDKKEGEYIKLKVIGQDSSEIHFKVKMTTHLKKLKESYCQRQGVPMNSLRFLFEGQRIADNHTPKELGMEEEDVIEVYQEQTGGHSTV
Chain of Nonstructural protein 1 (Q194T2 whole entry): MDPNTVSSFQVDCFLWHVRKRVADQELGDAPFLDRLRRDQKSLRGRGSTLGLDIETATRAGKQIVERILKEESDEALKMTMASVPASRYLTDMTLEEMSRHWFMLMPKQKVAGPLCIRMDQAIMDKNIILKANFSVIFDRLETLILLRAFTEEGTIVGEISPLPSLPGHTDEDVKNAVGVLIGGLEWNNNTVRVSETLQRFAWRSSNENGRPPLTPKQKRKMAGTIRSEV

COc1ccc(C(CNC(=O)c2ccc(Cl)c(NC(=O)c3cccs3)c2)N2CCCC2)cc1 (configuration not stated)
IC50 [1]: > 67.5 µM (inactive) | IC50 (cells [2]): > 67.5 µM (inactive)

O=C(Nc1ccncc1)Nc1ccc(F)cc1
IC50 [3]: 4.91 µM (active) | EC50 (cells [4]): > 29.9 µM (inactive) | IC50 (cells [5]): > 29.9 µM (inactive) | EC50 [6]: 0.548 µM (active)

Cc1ccc(Cn2c(CCNc3nc(-c4ccc(C)cc4)cs3)nc3cc(C(=O)NCCCO)ccc32)cc1
IC50 [7]: 9.43 µM (active) | IC50 [8]: > 66.6 µM (inactive)

CCc1cc(=O)oc2c(C)c(OCC(=O)NCCCN3CCOCC3)ccc12
IC50 (Steroidogenic factor 1): 35.9 µM (inactive) | IC50 [9]: 35.9 µM (inactive) | IC50 [10]: 35.9 µM (inactive)

CC1(C(=O)NCc2ccc(F)c(F)c2)Cc2c(-c3cccc(C(N)=O)c3)ccnc2O1 (configuration not stated)
AC50 [11]: 0.498 µM (active)

CC(O)(c1cccnc1)c1nc(-c2cccc(C#N)c2)cs1 (configuration not stated)
IC50 (Steroidogenic factor 1): 15.7 µM (inactive) | IC50 [9]: 35.9 µM (inactive) | IC50 [10]: 35.9 µM (inactive)

CC(=O)c1cccc(-c2ccnc3c2CC(C(=O)NCc2ccccc2)O3)c1 (configuration not stated)
IC50 [1]: > 67.4 µM (inactive) | IC50 (cells [2]): > 67.4 µM (inactive)

COc1cc(C(=O)c2cc3c(cc2C)OCO3)cc(OC)c1OC
IC50 [1]: > 67.5 µM (inactive) | IC50 (cells [2]): > 67.5 µM (inactive)

CCOc1cccc(-c2c(C(=O)N/N=C/c3ccc(C)o3)nnn2-c2nonc2N)c1
IC50 [3]: 17.2 µM (inactive) | EC50 (cells [4]): 19.4 µM (inactive) | IC50 (cells [5]): > 29.9 µM (inactive) | EC50 [6]: 3.78 µM (active)

CCN(CC)CCNc1ccc(C)c2sc3ccc(O)cc3c(=O)c12
IC50 [12]: 21.8 µM (active) | IC50 (Nonstructural protein 1): 19.7 µM (active) | AC50 [13]: 0.655 µM (active) | CC50 [14]: 31 µM (active)
